Patent US10064832B2, “Kartogenin-conjugated chitosan particles with improved sustained release property and biocombatibility, and use thereof” (priority 2014, dated 2018)

System: osteoarthritis model rats
Test: Osteoarthritis regeneration after intra-articular injection in osteoarthritis animal model
Format: in vivo
Conditions: injected into knee joints at 6 and 9 weeks after surgery, euthanized at 14 weeks
Experimental: The rats were euthanized at 14 weeks, and joint tissues were separated and fixed in 10% paraformaldehyde, and then treated with 6% nitric acid for to decalcification. The tissues were embedded in a Tissue-Tek O.C.T. compound (Sakura Finetek Japan Co., Ltd.), sectioned to 10 μm and attached to a slide glass, and thereafter, staining with Safranin-O/fast green and immunofluorescence of collagen type II (COL2A1) and aggrecan were performed.

## O=C(O)c1ccccc1C(=O)Nc1ccc(-c2ccccc2)cc1 [kartogenin]
  COL2 protein (immunofluorescent staining): noticeable reduction
  aggrecan protein (immunofluorescent staining): noticeable reduction
  cartilage histology (Safranin-O/fast green): weak vertical matrix cracks in a deep area of cartilage and loss and surface peeling of cartilage
